For six molecules, solubility and solubility in water results are on record in US9969823B1, “Synthesis and polymerization of vinyl triazolium ionic liquids” (United States Department of Energy, priority 2011, dated 2018).

This data set is described as follows: Solubility of ionic liquid monomers (IL) and their polymers (PIL) in solvents. Conditions: for solubility: 10 mg/ml, IL (monomer), first symbol; for solubility in water: IL monomers. It is filed as physicochemical.
[1] abbreviates: organic solvent or mixture, ACN, read-out: Solubility (IL/PIL) ACN.
The mark [2] stands for this setting: organic solvent or mixture, Acetone, read-out: Solubility (IL/PIL) Acetone.
Where [3] appears, read: organic solvent or mixture, DCM, read-out: Solubility (IL/PIL) DCM.
Where [4] appears, read: organic solvent or mixture, DMF, read-out: Solubility (IL/PIL) DMF.
[5] abbreviates: organic solvent or mixture, DMSO, read-out: Solubility (IL/PIL) DMSO.
Setting [6] is: organic solvent or mixture, Ethyl acetate, read-out: Solubility (IL/PIL) Ethyl acetate.
The mark [7] stands for this setting: organic solvent or mixture, Hexanes, read-out: Solubility (IL/PIL) Hexanes.
[8] abbreviates: organic solvent or mixture, MeOH, read-out: Solubility (IL/PIL) MeOH.
Setting [9] is: water, H2O, read-out: Solubility (IL/PIL) H2O.

Where two headings read alike, the source gives them in different places. A value given as a limit tells only on which side of the number the result lay.

As to `C=Cc1cn(-c2ccccc2)n[n+]1C` [PMVT Tf2N, 1-Phenyl-3-methyl-4-vinyl-triazolium bis(trifluoromethansulfonyl)amide], the solubility by setting is: under setting [1], > 10000 µg/mL; under setting [2], > 10000 µg/mL; under setting [3], > 10000 µg/mL; under setting [4], > 10000 µg/mL; under setting [5], > 10000 µg/mL; under setting [6], > 10000 µg/mL. The solubility is < 10000 µg/mL under setting [7], > 10000 µg/mL under setting [8] and < 10000 µg/mL under setting [9].
As to `C=Cc1cn(CCCCCCCCCC)n[n+]1C` [DMVT, 1-Decyl-3-methyl-4-vinyl-triazolium bis(trifluoromethansulfonyl)amide], the solubility runs as follows: under setting [1], > 10000 µg/mL; under setting [2], > 10000 µg/mL; under setting [3], < 10000 µg/mL; under setting [4], > 10000 µg/mL; under setting [5], > 10000 µg/mL; under setting [6], > 10000 µg/mL. Further, the solubility was < 10000 µg/mL under setting [7], > 10000 µg/mL under setting [8] and < 10000 µg/mL under setting [9].
`C=Cc1cn(CCO)n[n+]1C` [EtOHMVT, 2-(3-Methyl-4vinyl-triazolium-1-yl)ethanol bis(trifluoromethansulfonyl)amide]: the solubility in water entry (water) is recorded as “soluble”. For the same molecule, the solubility runs as follows: under setting [1], > 10000 µg/mL; under setting [2], > 10000 µg/mL; under setting [3], > 10000 µg/mL; under setting [4], > 10000 µg/mL; under setting [5], > 10000 µg/mL; under setting [6], > 10000 µg/mL. In addition, the solubility is, setting by setting: under setting [7], < 10000 µg/mL; under setting [8], > 10000 µg/mL; under setting [9], > 10000 µg/mL.
Regarding `C=Cc1cn(CCOCCOCCOC)n[n+]1C` [TEGMVT, 1-TEG-3-methyl-4-vinyl-triazolium bis(trifluoromethansulfonyl)amide], the solubility in water result (water) is given as “soluble”. Also, the solubility was > 10000 µg/mL under setting [1]; > 10000 µg/mL under setting [2]; > 10000 µg/mL under setting [3]; > 10000 µg/mL under setting [4]; > 10000 µg/mL under setting [5]; > 10000 µg/mL under setting [6]. The solubility under setting [7] was < 10000 µg/mL, the solubility under setting [8] was > 10000 µg/mL and the solubility under setting [9] was > 10000 µg/mL.
In the case of `C=Cc1cn(CCCCCC)n[n+]1C` [HMVT, 1-Hexyl-3-methyl-4-vinyl-triazolium bis(trifluoromethansulfonyl)amide], the solubility runs as follows: under setting [1], > 10000 µg/mL; under setting [2], > 10000 µg/mL; under setting [3], > 10000 µg/mL; under setting [4], > 10000 µg/mL; under setting [5], > 10000 µg/mL; under setting [6], > 10000 µg/mL. Also, the solubility was < 10000 µg/mL under setting [7], > 10000 µg/mL under setting [8] and < 10000 µg/mL under setting [9].
With `C=Cc1cn(Cc2ccccc2)n[n+]1C` [BMVT Tf2N, 1-Benzyl-3-methyl-4-vinyl-triazolium bis(trifluoromethansulfonyl)amide], the solubility under setting [1] was > 10000 µg/mL; the solubility under setting [2] was > 10000 µg/mL; the solubility under setting [3] was > 10000 µg/mL; the solubility under setting [4] was > 10000 µg/mL; the solubility under setting [5] was > 10000 µg/mL; the solubility under setting [6] was > 10000 µg/mL. Further, the solubility runs as follows: under setting [7], < 10000 µg/mL; under setting [8], > 10000 µg/mL; under setting [9], < 10000 µg/mL.
